Results taken from US6632793B1, “Immunological activity for a peptide of the limulus anti-LPS factor” (Centro de Ingenieria Genetica y Biotecnologia, priority 1997, dated 2003).
Where a SMILES comes first, the peptide text is derived from it.

Tests used:
[1] = system: bovine enterovirus on cell line MDBK; test: Antiviral effect: inhibition of the cytopathic effect of bovine enterovirus on cell line MDBK; type: cell-based; details: 10 μM, 20 μM and 40 μM; FIG. 5
Protocol: Determination of the antiviral activity was estimate by means of the inhibition of the cytopathic effect produced by a virus on cell line MDBK, essentially as is described in the example 1. The cells used in this approach were MDBK a kidney normal bovine cells line [ATCC No. 6071], which are infected with […] of bovine enterovirus. Increasing quantities of LALF peptide were used in order to induced protection in the-cells: 10 μM, 20 μM and 40 μM. In this case serial dilution's of human α-IFN 70 000 IU/ml (MRI, Freeze-dried Reference Human Recombinant Alpha Interferon) was used as standard in order to define unit of antiviral activity. One unit of antiviral activity is defining as the quantity of IFN able to produce a 50% inhibition of the viral replication.
The cells were treated with increasing quantities of peptide during 18 hours. Afterwards, the cells were challenged with a bovine enterovirus. Antiviral activity is referred as U/ml α-IFN.

TNF-α in mouse serum = test: Serum TNF after P. aeruginosa challenge in peptide-treated mice (ELISA); type: in vivo, mice BalB/c; details: 14 μg i.p. 20 h before P. aeruginosa; 0-240 min; FIG. 4
Protocol: Groups of mice received LALF peptide (14 μg/0.1 ml) or saline control (0.1 ml) intraperitoneally 20 hours prior to infectious challenge. […] Blood was collected for TNF quantification from the retroorbital sinus at the time 0, 20, 40, 60, 90, 120, 180, 240 min in the control group and peptide treated-mice. The concentration of TNF-α in mouse serum was determined using a specific ELISA kindly provided by.
Eight-week-old mice were injected i.p. with 14 μg of peptide in 0.1 ml saline or saline alone. Twenty hours after the mice were injected i.p. with a lethal doses of P. aeruginosa. At 0, 20, 40, 60, 90, 120, 180 and 240 min following the challenge, the mice were bled from the retroorbital sinus and the serum concentration of TNF was measured.

[2] = system: NO production in peritoneal macrophages; test: NO2- secretion (Greiss) in LPS-activated peritoneal macrophages pre-incubated with peptide; type: cell-based, Balb/c mice; details: 5 μM pre-incubation 18 h, then LPS 1 μg/ml 72 h; FIG. 7
Protocol: Peritoneal elicited cells were obtained from Balb/c mice (CENPALAB, Havana, Cuba). Primary mouse macrophages was collected from the peritoneal cavity 4 days after intraperitoneal injection with 1 ml of 4% Brewer's thioglicollate broth. Cell were maintained in RPMI 1640 supplemented with 10% heat-inactivated fetal bovine serum, 2 mM L-glutamine, 200 units/ml penicillin, and 200 μg/ml streptomycin at 37° C. in 5% CO2/[…].
Assay for Secretion of NO2-(Jin, F^29, Nathan, C, Radzioch, 0, and Ding, A. Cell, 1997, 88: 417-426). Cells were plated in 96-well plates at 2×10^6 cells /ml in 200 μl of medium and incubated at 37° C. for 2 h, then non-adherent cells were removed by repeated washing with PBS. […] Cell viability was assessed by mitochondrial-dependent reduction of MTT to formazan (Szabo^30, c, Mitchell, J A, Gross, S S, Thiemermann, C, and Vane, JR. J. Pharm. Exp. Therap., 1992, 265: 674-80). […] Absorbance at 540 nm was recorded in a microplate reader (SUMA) with sodium nitrite as standards (Green^28, L C, Wagner, D A, Glogowski, J, et al. Anal Biochem 1982; 126: 131-8). […]
FIG. 7: Regulatory effect of LALF derived-peptide on NO production in stimulated peritoneal macrophages. […] Levels of NO were measured in the cells cultured supernatants using the Greiss method.

CC[C@H](C)[C@H](NC(=O)[C@H](CCCNC(=N)N)NC(=O)[C@H](Cc1ccc(O)cc1)NC(=O)[C@H](Cc1c[nH]cn1)NC(=O)[C@@H](N)CS)C(=O)N[C@@H](CCCCN)C(=O)N1CCC[C@H]1C(=O)N[C@H](C(=O)N[C@@H](Cc1ccccc1)C(=O)N[C@@H](CCCNC(=N)N)C(=O)N[C@@H](CCCNC(=N)N)C(=O)N[C@@H](CC(C)C)C(=O)N[C@@H](CCCCN)C(=O)N[C@@H](Cc1c[nH]c2ccccc12)C(=O)N[C@@H](CCCCN)C(=O)N[C@@H](Cc1ccc(O)cc1)C(=O)N[C@@H](CCCCN)C(=O)NCC(=O)N[C@@H](CCCCN)C(=O)N[C@@H](Cc1ccccc1)C(=O)N[C@@H](Cc1c[nH]c2ccccc12)C(=O)N[C@@H](CS)C(=O)O)[C@@H](C)O [LALF] (H-CHYRIKPTFRRLKWKYKGKFWC-OH)
Protection of cell line MDBK against bovine enterovirus (in words) [1]: able to induce protection in the cell line MDBK in a doses dependent manner
Effect on systemic TNF after bacterial challenge (in words) (TNF-α in mouse serum): induced a decrease of the proinflammatory cytokine TNF
NO production in LPS-activated macrophages (in words) [2]: up regulated
